Measurements reported in patent publication US8278320B2, “Azabicyclo[2.2.1]heptane compounds as alpha-7 nicotinic acetylcholine receptor ligands” (Bristol-Myers Squibb Company, priority 2009, dated 2012).
Like-named read-outs stand apart in the source and are kept apart here.

Target: α-7 nicotinic ACh receptor ion channel expressed in mammalian HEK 293 cells (Rattus norvegicus, UniProt Q05941)
Test: Ca2+-sensitive, fluorescence-based FLIPR assay for α-7 nicotinic acetylcholine receptor channel function (agonist activity)
Assay type: cell-based
Set-up: expressed in transfected cells
Settings: Ca2+ flux, HEK-293 cells, Fluo-4
Experimental: I) α7 Nicotinic Acetycholine Receptor Binding. Membranes were prepared for binding using HEK293 cells stably expressing the rat α7 nicotinic acetycholine receptor (rat α7 nAChR). Cells were homogenized at 4° C. in hypotonic lysis buffer consisting of 10 mM Tris (pH 7.4), 5 mM EDTA and protease inhibitors and centrifuged at 32000×g for 20 minutes. The pellet was washed once in membrane wash buffer consisting of 50 mM Tris (pH 7.4), 1 mM EDTA and protease inhibitors and centrifuged at 32000×g for 20 minutes. This pellet was then resuspended in assay buffer consisting 50 mM KH2PO4 (pH 7.4 at 25° C.), 1 mM EDTA, 0.005% Triton-X 100 and 0.1% (v/v) Sigma Protease Inhibitor Cocktail. Aliquots were then frozen in dry ice/ethanol and kept at −80° C. until the day of the assay. II) A Ca^2+-Sensitive, Fluorescence-Based Assay α-7 for Nicotinic Acetylcholine Receptor Channel Function In Mammalian Cells (“FLIPR”). Summary: Lead compounds are evaluated for agonist activity at α-7, α3β4, α4αβ2, and α1β1δ1ε sub-types of nicotinic ACh receptor ion channels expressed in mammalian HEK 293 cells. Agonist potency and efficacy values are determined from kinetic fluorescence Ca^2+ influx measurements made using a 384 well FLIPR (Fluorescence Image Plate Reader). […] In this assay, channel expressing HEK cell lines seeded in 384 well assay plates are loaded with a membrane permeant fluorescent Ca^2+ indicator dye, whose 510 nm green emission signal increases in response to elevation of intracellular Ca^2+ concentration. The basal fluorescence from the cells is monitored in real time, followed by the acute addition of test compounds.
Materials and Methods: Reagents: The acetomethoxy (AM) ester of the Ca^2+ indicator dye Fluo-4 was obtained from InVitrogen, (Carlsbad, Calif.). Acetylcholine and all buffer constituents were purchased from Sigma Chemical Company, St. Louis, Mo. G418 and Minimal Essential Medium were purchased from InVitrogen Life Technologies, Carlsbad, Calif. Fetal bovine serum was purchased from (InVitrogen, Carlsbad, Calif.).
Cell Culture: HEK-293 cells were grown in Minimal Essential Medium containing 10% (v/v) fetal bovine serum at 37° C. in a 5% CO2 incubator. HEK-293 cells stably expressing the ion channels were grown in the same medium with the addition of 500 μg/ml G418.
Ca^2+ flux assays of Ca^2+ channels expressed in HEK-293 cells: HEK-293 cells expressing the ion channels of interest were plated in 384 well, black-walled, clear-bottomed, poly-D-lysine coated plates at a density of ˜20,000 cells/well in 20 μl of Minimal Essential Medium containing 10% (v/v) fetal bovine serum and incubated for 2 days at 29° C. in a 5% CO2 incubator. Prior to assay, cells were loaded with the Fluo-4 AM ester. […] Dye loading was allowed to proceed for 90 minutes at room temperature at which time the dye loading solution was removed and replaced with 40 μl/well of Hanks buffer. Cells loaded with dye were loaded onto a FLIPR384 (Molecular Devices, Sunnyvale, Calif.). Fluo-4 dye was excited using the 488 nm line of an argon laser. Emission was filtered using a 540+/−30 nm bandpass filter. For evaluation of the effects of test compounds using the Ca^2+ flux assay, compounds to be tested were provided in assay ready plates. For nicotinic receptor ion channel expressing cells, the assay was initiated by the addition of 20 μl/well of Hanks buffer containing test compounds. For all assays, data were collected at 1 Hz for 10 seconds (baseline), at which time the compound containing stimulus buffers are added, and further measurements collected at 0.33 Hz for 3 min.
Data Analysis: The statistical robustness of the nicotinic receptor Ca^2+ flux assays is determined from blanks and totals wells. […] The raw fluorescence units data files generated on the FLIPR plate reader are automatically exported and processed by in-house data analysis tools.

[1] = agonist potency class, read-out: FLIPR α7 activity rating (EC50)
[2] = agonist potency, read-out: FLIPR α7-HI (EC50)
[3] = FLIPR α7-HI (EC50, nM), agonist potency
[4] = FLIPR α7 activity rating (EC50, nM), agonist potency class

Sequence of α-7 nicotinic ACh receptor ion channel expressed in mammalian HEK 293 cells (Q05941 23-502): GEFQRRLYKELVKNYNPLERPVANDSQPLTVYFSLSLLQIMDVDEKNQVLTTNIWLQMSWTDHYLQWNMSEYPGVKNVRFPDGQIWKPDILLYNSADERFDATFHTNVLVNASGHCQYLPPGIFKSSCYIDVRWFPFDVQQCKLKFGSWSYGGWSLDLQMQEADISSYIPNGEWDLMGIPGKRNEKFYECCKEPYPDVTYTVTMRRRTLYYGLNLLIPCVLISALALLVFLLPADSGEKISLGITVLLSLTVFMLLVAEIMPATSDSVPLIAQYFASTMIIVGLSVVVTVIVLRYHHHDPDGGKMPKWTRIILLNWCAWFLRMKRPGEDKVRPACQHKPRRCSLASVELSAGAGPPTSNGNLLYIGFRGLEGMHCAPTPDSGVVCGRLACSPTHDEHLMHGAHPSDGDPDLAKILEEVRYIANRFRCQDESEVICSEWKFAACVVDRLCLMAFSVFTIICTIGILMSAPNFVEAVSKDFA

Row | SMILES | EC50 [3] | EC50 [4] | further results
1 | COc1ccc2nc(NC3=NC[C@@]4(C[N@]5CC[C@H]4C5)O3)sc2c1 (relative stereo) [Example 1, (3R*,4S*)—N-(6-Methoxybenzo[d]thiazol-2-yl)-4′H-1-azaspiro[bicyclo[2.2.1]heptane-3,5′-oxazol]-2′-amine] |  |  | EC50 [1]: 1000 to 100000 nM; EC50 [2]: 411 nM
2 | COc1ccc2nc(NC3=NC[C@@]4(C[N@@]5CC[C@@H]4C5)O3)sc2c1 (relative stereo) [Example 2, (3R*,4R*)—N-(6-Methoxybenzo[d]thiazol-2-yl)-4′H-1-azaspiro[bicyclo[2.2.1]heptane-3,5′-oxazol]-2′-amine] |  |  | EC50 [1]: 1000 to 100000 nM
3 | Clc1ccc2nc(NC3=NC[C@@]4(C[N@@]5CC[C@@H]4C5)O3)sc2n1 (relative stereo) [Example 3, (3R*,4R*)—N-(5-Chlorothiazolo[5,4-b]pyridin-2-yl)-4′H-1-azaspiro[bicyclo[2.2.1]heptane-3,5′-oxazol]-2′-amine] | 91 nM | 100 to 1000 nM | 
4 | Fc1ccc2nc(NC3=NC[C@@]4(C[N@@]5CC[C@@H]4C5)O3)sc2n1 (relative stereo) [Example 4, (3R*,4R*)—N-(5-Fluorothiazolo[5,4-b]pyridin-2-yl)-4′H-1-azaspiro[bicyclo[2.2.1]heptane-3,5′-oxazol]-2′-amine] |  | 100 to 1000 nM | 
5 | COc1ccc2nc(NC3=NC[C@@]4(C[N@@]5CC[C@@H]4C5)O3)sc2n1 (relative stereo) [Example 5, (3R*,4R*)—N-(5-Methoxythiazolo[5,4-b]pyridin-2-yl)-4′H-1-azaspiro[bicyclo[2.2.1]heptane-3,5′-oxazol]-2′-amine] | 311 nM | 1000 to 100000 nM | 
6 | Clc1cnc(NC2=NC[C@@]3(C[N@@]4CC[C@@H]3C4)O2)c(Cl)c1 (relative stereo) [Example 6, (3R*,4R*)—N-(3,5-Dichloropyridin-2-yl)-4′H-1-azaspiro[bicyclo[2.2.1]heptane-3,5′-oxazol]-2′-amine] | 155 nM | 100 to 1000 nM | 
7 | c1ccc2cc(NC3=NC[C@@]4(C[N@@]5CC[C@@H]4C5)O3)ncc2c1 (relative stereo) [Example 7, (3R*,4R*)—N-(Isoquinolin-3-yl)-4′H-1-azaspiro[bicyclo[2.2.1]heptane-3,5′-oxazol]-2′-amine] |  | < 100 nM | 
8 | c1cnc2sc(NC3=NC[C@@]4(C[N@@]5CC[C@@H]4C5)O3)nc2c1 (relative stereo) [Example 8, (3R*,4R*)—N-(Thiazolo[5,4-b]pyridin-2-yl)-4′H-1-azaspiro[bicyclo[2.2.1]heptane-3,5′-oxazol]-2′-amine] |  | 100 to 1000 nM | 
9 | Cc1cccc(-c2cnc(NC3=NC[C@@]4(C[N@@]5CC[C@@H]4C5)O3)nc2)c1 (relative stereo) [Example 9, (3R*,4R*)—N-(5-m-Tolylpyrimidin-2-yl)-4′H-1-azaspiro[bicyclo[2.2.1]heptane-3,5′-oxazol]-2′-amine] |  |  | EC50 [1]: 1000 to 100000 nM; EC50 [2]: 487 nM
10 | COc1ccc(NC2=NC[C@@]3(C[N@@]4CC[C@@H]3C4)O2)nc1 (relative stereo) [Example 10, (3R*,4R*)—N-(5-Methoxypyridin-2-yl)-4′H-1-azaspiro[bicyclo[2.2.1]heptane-3,5′-oxazol]-2′-amine] |  | 100 to 1000 nM | 
11 | c1ccc2cc(NC3=NC[C@@]4(C[N@]5CC[C@H]4C5)O3)ncc2c1 (relative stereo) [Example 16, (3R*,4S*)—N-(Isoquinolin-3-yl)-4′H-1-azaspiro[bicyclo[2.2.1]heptane-3,5′-oxazol]-2′-amine] | 33 nM | < 100 nM | 
12 | c1cnc2sc(NC3=NC[C@@]4(C[N@]5CC[C@H]4C5)O3)nc2c1 (relative stereo) [Example 17, (3R*,4S*)—N-(Thiazolo[5,4-b]pyridin-2-yl)-4′H-1-azaspiro[bicyclo[2.2.1]heptane-3,5′-oxazol]-2′-amine] |  | < 100 nM | 
13 | c1ccc2cc(NC3=NCC4(CN5CCC4C5)O3)ncc2c1 (single isomer, unassigned) [Example 7a] |  | < 100 nM | 
14 | c1ccc2cc(NC3=NCC4(CN5CCC4C5)O3)ncc2c1 (single isomer, unassigned) [Example 7b] |  | < 100 nM | 
15 | c1cnc2sc(NC3=NCC4(CN5CCC4C5)O3)nc2c1 (single isomer, unassigned) [Example 8a] | 121 nM | 100 to 1000 nM | 
16 | c1cnc2sc(NC3=NCC4(CN5CCC4C5)O3)nc2c1 (single isomer, unassigned) [Example 8b] |  | < 100 nM | 
17 | c1ccc2cc(NC3=NCC4(CN5CCC4C5)O3)ncc2c1 (single isomer, unassigned) [Example 16a] |  | 1000 to 100000 nM | 
18 | c1ccc2cc(NC3=NCC4(CN5CCC4C5)O3)ncc2c1 (single isomer, unassigned) [Example 16b] |  | < 100 nM | 
19 | c1cnc2sc(NC3=NCC4(CN5CCC4C5)O3)nc2c1 (single isomer, unassigned) [Example 17a] |  | 1000 to 100000 nM | 
20 | c1cnc2sc(NC3=NCC4(CN5CCC4C5)O3)nc2c1 (single isomer, unassigned) [Example 17b] | 35 nM | < 100 nM | 
21 | c1cncc(-c2cc(NC3=NC[C@@]4(C[N@@]5CC[C@@H]4C5)O3)ncn2)c1 [Example 11, (3R,4R)—N-(6-(Pyridin-3-yl)pyrimidin-4-yl)-4′H-1-azaspiro[bicyclo[2.2.1]heptane-3,5′-oxazol]-2′-amine] | 34 nM | < 100 nM | 
22 | COc1cc(NC2=NC[C@@]3(C[N@@]4CC[C@@H]3C4)O2)ncn1 [Example 13, (3R,4R)—N-(6-Methoxypyrimidin-4-yl)-4′H-1-azaspiro[bicyclo[2.2.1]heptane-3,5′-oxazol]-2′-amine] |  | 100 to 1000 nM | 
23 | Clc1cnc(NC2=NC[C@@]3(C[N@@]4CC[C@@H]3C4)O2)cn1 [Example 14, (3R,4R)—N-(5-Chloropyrazin-2-yl)-4′H-1-azaspiro[bicyclo[2.2.1]heptane-3,5′-oxazol]-2′-amine] |  | 100 to 1000 nM | 
24 | c1ccc(-c2ccnc(NC3=NC[C@@]4(C[N@@]5CC[C@@H]4C5)O3)n2)cc1 [Example 15, (3R,4R)—N-(4-Phenylpyrimidin-2-yl)-4′H-1-azaspiro[bicyclo[2.2.1]heptane-3,5′-oxazol]-2′-amine] |  | < 100 nM | 
25 | c1cc(-c2cc(NC3=NC[C@@]4(C[N@@]5CC[C@@H]4C5)O3)ncn2)ccn1 [Example 18, (3R,4R)—N-(6-(Pyridin-4-yl)pyrimidin-4-yl)-4′H-1-azaspiro[bicyclo[2.2.1]heptane-3,5′-oxazol]-2′-amine] |  | < 100 nM | 
26 | c1cn(-c2cc(NC3=NC[C@@]4(C[N@@]5CC[C@@H]4C5)O3)ncn2)cn1 [Example 19, (3R,4R)—N-(6(1H-Imidazol-1-yl)pyrimidin-4-yl)-4′H-1-azaspiro[bicyclo[2.2.1]heptane-3,5′-oxazol]-2′-amine] | 45 nM | < 100 nM | 
27 | Clc1cn(-c2cc(NC3=NC[C@@]4(C[N@@]5CC[C@@H]4C5)O3)ncn2)cn1 [Example 20, (3R,4R)—N-(6-(4-Chloro-1H-imidazol-1-yl)pyrimidin-4-yl)-4′H-1-azaspiro[bicyclo[2.2.1]heptane-3,5′-oxazol]-2′-amine] | 129 nM | 100 to 1000 nM | 
28 | c1nc(NC2=NC[C@@]3(C[N@@]4CC[C@@H]3C4)O2)cc(-n2cncn2)n1 [Example 21, (3R,4R)—N-(6-(1H-1,2,4-Triazol-1-yl)pyrimidin-4-yl)-4′H-1-azaspiro[bicyclo[2.2.1]heptane-3,5′-oxazol]-2′-amine] |  | < 100 nM | 
